{"source": "patent US9505735B2", "about": "“Compounds for treating infectious diseases” (Whitehead Institute for Biomedical Research, priority 2012, dated 2016)", "key": {"BIP level in K562 cells": {"system": "BIP level in K562 cells", "assay": "BIP immunoblot in mammalian cells", "format": "cell-based, human", "conditions": "20 μM, 28 hour", "method": "Immunoblot of lysates prepared from human leukemia cells (K562) using an antibody to BIP after 28 hour exposure to tunicamycin (1 μg ml^−1), gepinacin (20 μM) or solvent vehicle (DMSO, 0.1%). Betaactin was blotted as a loading control."}, "[1]": {"system": "S. cerevisiae strains with graded levels of Gwt1 expression", "assay": "Antifungal susceptibility testing of strains with graded GWT1 copy number", "format": "cell-based", "description": "(A) Anti-fungal susceptibility testing of S. cerevisiae strains with graded levels of Gwt1 expression treated with gepinacin. Wild type diploids (Wt) or diploids with one copy of GWT1 deleted (gwt1/GWT1) were transformed with low copy (CEN) plasmids encoding GWT1 or GFP (as a control). (B) Schematic of Gwt1 protein function in cells. Glucosamine (shown as a black circle) phosphatidyl inositol (GlcN-PI) is acylated (orange zigzag) by Gwt1 to become GlcN-(acyl)PI.\nAnti-fungal susceptibility testing of wild type diploids (Wt) or diploids with one copy of GWT1 deleted (gwt1Δ/GWT1) transformed with high copy (2 micron) plasmids containing GWT1 or GFP (as a control). The strains were treated with gepinacin for 48 hours and the growth was monitored by measuring the optical density at 600 nm (OD600). The results are expressed as a fraction of the OD600 measured in the absence of gepinacin.\nTo determine the mechanism responsible for the antifungal activity of the compound, the powerful genetic tools available in the model fungal organism S. cerevisiae were utilized. Both an arrayed haploid over-expression library and a pooled heterozygous deletion library were screened for enhancement or suppression of toxicity. […] With each strain expressing one open reading frame (ORF), this library covered approximately 90% of the yeast genome. […]"}}, "data": [{"smiles": "COc1ccc(NC(=O)COc2cccc(OCC(C)C)c2)cc1", "note": "[gepinacin]", "values": [{"measurement": "ER function monitored by induction of BIP", "setting": "BIP level in K562 cells", "result": "did not perturb ER function"}, {"measurement": "toxicity versus GWT1 copy number", "setting": "[1]", "result": "inversely correlated with GWT1 copy number"}]}]}
